In ChEMBL document CHEMBL1133355, “Pyrrolo[3,2,1-ij]quinoline derivatives, a 5-HT2c receptor agonist with selectivity over the 5-HT2a receptor: potential therapeutic applications for epilepsy and obesity” (Bioorg Med Chem Lett, 2000):

Key:
[1] = target: T1, 5-hydroxytryptamine receptor 2C (Homo sapiens, UniProt P28335); assay: Functional agonist activity of compound was determined by fluorescence-based assay measuring intracellular calcium mobilization for 5-HT2c receptor cell line
T1 sequence (P28335 whole entry): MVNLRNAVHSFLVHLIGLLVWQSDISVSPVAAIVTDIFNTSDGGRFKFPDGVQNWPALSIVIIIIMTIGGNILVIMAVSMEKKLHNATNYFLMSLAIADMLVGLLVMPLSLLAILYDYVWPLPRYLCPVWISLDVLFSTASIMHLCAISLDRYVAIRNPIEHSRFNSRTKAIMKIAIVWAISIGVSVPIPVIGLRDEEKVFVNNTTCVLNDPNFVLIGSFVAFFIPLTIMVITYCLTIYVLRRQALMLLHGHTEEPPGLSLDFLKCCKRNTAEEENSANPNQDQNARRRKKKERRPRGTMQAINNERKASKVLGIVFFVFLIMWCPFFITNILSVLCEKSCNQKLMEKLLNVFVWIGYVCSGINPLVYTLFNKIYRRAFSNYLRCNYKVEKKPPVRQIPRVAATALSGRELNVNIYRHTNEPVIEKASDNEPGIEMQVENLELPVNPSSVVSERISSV

[2] = target: T1, 5-hydroxytryptamine receptor 2C; assay: In vitro binding affinity towards human 5-hydroxytryptamine 2C receptor expressed in HEK293 cells was determined using [3H]mesulergine as radioligand; type: cell-based
[3] = target: T2, 5-hydroxytryptamine receptor 2A (Homo sapiens, UniProt P28223); assay: In vitro binding affinity towards human 5-hydroxytryptamine 2A receptor expressed in HEK293 cells was determined using [3H]ketanserin as radioligand; type: cell-based
[4] = Binding ratio of compound to 5-HT2a to that of 5-HT2c was determined
[5] = target: T2, 5-hydroxytryptamine receptor 2A; assay: Functional agonist activity of compound was determined by fluorescence-based assay measuring intracellular calcium mobilization for 5-HT2a receptor cell line
[6] = target: T2, 5-hydroxytryptamine receptor 2A; assay: Functional antagonist activity of compound was determined by fluorescence-based assay measuring intracellular calcium mobilization for 5-HT2a receptor cell line

T2 sequence (P28223 whole entry): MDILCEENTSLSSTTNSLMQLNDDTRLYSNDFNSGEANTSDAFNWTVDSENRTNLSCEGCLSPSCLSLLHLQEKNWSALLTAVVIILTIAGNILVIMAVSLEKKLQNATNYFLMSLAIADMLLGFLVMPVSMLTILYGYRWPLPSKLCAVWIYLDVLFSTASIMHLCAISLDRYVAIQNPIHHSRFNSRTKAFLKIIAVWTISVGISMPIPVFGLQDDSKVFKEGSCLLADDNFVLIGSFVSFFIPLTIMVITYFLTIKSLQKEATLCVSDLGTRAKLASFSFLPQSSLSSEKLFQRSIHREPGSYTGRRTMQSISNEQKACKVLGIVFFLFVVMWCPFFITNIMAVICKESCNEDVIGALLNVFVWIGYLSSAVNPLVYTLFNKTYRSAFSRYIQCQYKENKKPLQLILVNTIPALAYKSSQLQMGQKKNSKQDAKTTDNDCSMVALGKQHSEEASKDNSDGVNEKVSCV

| SMILES | EC50 [1] | Ki [2] | Ki [3] | Ratio [4] | EC50 [5] | EC50 [6] |
| --- | --- | --- | --- | --- | --- | --- |
| Cc1c(CCN)c2cccc3c2n1CCC3 | 9 nM | 225 nM | 676 nM | 3 | – | – |
| NCCc1cn2c3c(cc(Cl)cc13)SCC2 | 0.23 nM | 47 nM | 631 nM | 13.4 | 348 nM | – |
| CNCCc1cn2c3c(cc(F)cc13)CCC2C (centres undefined) | 180 nM | 33 nM | 1460 nM | 44 | > 10000 nM | 1100 nM |
| Cc1c(CCN)c2cc(F)cc3c2n1C(C)CC3 (centres undefined) | 41 nM | 194 nM | 954 nM | 4.9 | – | – |
| NCCc1cn2c3c(cccc13)CCC2 | 0.2 nM | 41 nM | 794 nM | 19.4 | 145 nM | – |
| CC1CCc2cc(F)cc3c(CCN)cn1c23 (centres undefined) | 5.7 nM | 18 nM | 2340 nM | 130 | 269 nM | – |
